Reference: the NIST ThermoML archive (doi:10.1016/j.fluid.2012.09.037)
± gives the expanded uncertainty stated by the source.

Assay: xn = mol fraction of the nth substance listed
Conditions: 373.2 K, Liquid; for mass density: Vibrating tube method; for viscosity: Moving piston method

Q: What does the source list for `CCCCCCCCCC` [decane] + CCCCCCCCCCCCCC?
A: mass density (100 kPa, x1 = 1): 667.1 ± 0.3 kg/m3; mass density (1000 kPa, x1 = 1): 668.4 ± 0.4 kg/m3; mass density (2000 kPa, x1 = 1): 669.6 ± 0.4 kg/m3; mass density (3000 kPa, x1 = 1): 670.9 ± 0.4 kg/m3; mass density (4000 kPa, x1 = 1): 672.1 ± 0.4 kg/m3; mass density (5000 kPa, x1 = 1): 673.4 ± 0.4 kg/m3; mass density (6000 kPa, x1 = 1): 674.5 ± 0.4 kg/m3; mass density (7000 kPa, x1 = 1): 675.7 ± 0.4 kg/m3; mass density (8000 kPa, x1 = 1): 676.9 ± 0.4 kg/m3; mass density (9000 kPa, x1 = 1): 678.1 ± 0.4 kg/m3; mass density (10000 kPa, x1 = 1): 679.2 ± 0.4 kg/m3

Q: For `CCCCCCCCCC` [decane] + O=C=O, which viscosity (1120 kPa, x2 = 0.075) is on record?
A: 0.35 ± 0.04 mPa·s

Q: What about the mass density (1120 kPa, x2 = 0.075) of the same compound?
A: 669 ± 2 kg/m3

Q: And the viscosity (1950 kPa, x2 = 0.124)?
A: 0.33 ± 0.03 mPa·s

Q: And the mass density (1950 kPa, x2 = 0.124)?
A: 671 ± 2 kg/m3

Q: What about the viscosity (3040 kPa, x2 = 0.192) of the same compound?
A: 0.29 ± 0.03 mPa·s

Q: What about the mass density (3040 kPa, x2 = 0.192) of the same compound?
A: 672 ± 2 kg/m3

Q: What about the viscosity (4010 kPa, x2 = 0.246) of the same compound?
A: 0.27 ± 0.03 mPa·s

Q: And the mass density (4010 kPa, x2 = 0.246)?
A: 674 ± 2 kg/m3

Q: And the viscosity (5110 kPa, x2 = 0.313)?
A: 0.25 ± 0.03 mPa·s

Q: And the mass density (5110 kPa, x2 = 0.313)?
A: 676 ± 2 kg/m3

Q: What about the viscosity (6190 kPa, x2 = 0.367) of the same compound?
A: 0.22 ± 0.02 mPa·s

Q: And the mass density (6190 kPa, x2 = 0.367)?
A: 677 ± 2 kg/m3

Q: Which results are given for `CCCCCCCCCCCCCC` [tetradecane] + CCCCCCCCCC?
A: mass density (100 kPa, x2 = 0): 705.4 ± 0.3 kg/m3; mass density (100 kPa, x2 = 0.25): 697.8 ± 0.3 kg/m3; mass density (100 kPa, x2 = 0.5): 689.1 ± 0.4 kg/m3; mass density (100 kPa, x2 = 0.75): 679.1 ± 0.4 kg/m3; mass density (1000 kPa, x2 = 0): 706.5 ± 0.4 kg/m3; mass density (1000 kPa, x2 = 0.25): 698.8 ± 0.4 kg/m3; mass density (1000 kPa, x2 = 0.5): 690.3 ± 0.4 kg/m3; mass density (1000 kPa, x2 = 0.75): 680.3 ± 0.4 kg/m3; mass density (2000 kPa, x2 = 0): 707.6 ± 0.4 kg/m3; mass density (2000 kPa, x2 = 0.25): 699.9 ± 0.4 kg/m3; mass density (2000 kPa, x2 = 0.5): 691.5 ± 0.4 kg/m3; mass density (2000 kPa, x2 = 0.75): 681.6 ± 0.4 kg/m3; mass density (3000 kPa, x2 = 0): 708.6 ± 0.4 kg/m3; mass density (3000 kPa, x2 = 0.25): 701 ± 0.4 kg/m3; mass density (3000 kPa, x2 = 0.5): 692.6 ± 0.4 kg/m3; mass density (3000 kPa, x2 = 0.75): 682.7 ± 0.4 kg/m3; mass density (4000 kPa, x2 = 0): 709.6 ± 0.4 kg/m3; mass density (4000 kPa, x2 = 0.25): 702 ± 0.4 kg/m3; mass density (4000 kPa, x2 = 0.5): 693.7 ± 0.4 kg/m3; mass density (4000 kPa, x2 = 0.75): 683.9 ± 0.4 kg/m3; mass density (5000 kPa, x2 = 0): 710.7 ± 0.4 kg/m3; mass density (5000 kPa, x2 = 0.25): 703.1 ± 0.4 kg/m3; mass density (5000 kPa, x2 = 0.5): 694.8 ± 0.4 kg/m3; mass density (5000 kPa, x2 = 0.75): 685.1 ± 0.4 kg/m3; mass density (6000 kPa, x2 = 0): 711.6 ± 0.4 kg/m3; mass density (6000 kPa, x2 = 0.25): 704.1 ± 0.4 kg/m3; mass density (6000 kPa, x2 = 0.5): 695.9 ± 0.4 kg/m3; mass density (6000 kPa, x2 = 0.75): 686.2 ± 0.4 kg/m3; mass density (7000 kPa, x2 = 0): 712.6 ± 0.4 kg/m3; mass density (7000 kPa, x2 = 0.25): 705.2 ± 0.4 kg/m3; mass density (7000 kPa, x2 = 0.5): 697 ± 0.4 kg/m3; mass density (7000 kPa, x2 = 0.75): 687.3 ± 0.4 kg/m3; mass density (8000 kPa, x2 = 0): 713.6 ± 0.4 kg/m3; mass density (8000 kPa, x2 = 0.25): 706.2 ± 0.4 kg/m3; mass density (8000 kPa, x2 = 0.5): 698 ± 0.4 kg/m3; mass density (8000 kPa, x2 = 0.75): 688.4 ± 0.4 kg/m3; mass density (9000 kPa, x2 = 0): 714.6 ± 0.4 kg/m3; mass density (9000 kPa, x2 = 0.25): 707.2 ± 0.4 kg/m3; mass density (9000 kPa, x2 = 0.5): 699 ± 0.4 kg/m3; mass density (9000 kPa, x2 = 0.75): 689.5 ± 0.4 kg/m3; mass density (10000 kPa, x2 = 0): 715.5 ± 0.4 kg/m3; mass density (10000 kPa, x2 = 0.25): 708.2 ± 0.4 kg/m3; mass density (10000 kPa, x2 = 0.5): 700.1 ± 0.4 kg/m3; mass density (10000 kPa, x2 = 0.75): 690.6 ± 0.4 kg/m3

Q: For `CCCCCCCCCCCCCC` [tetradecane] + O=C=O, which viscosity (960 kPa, x2 = 0.07) is on record?
A: 0.6 ± 0.06 mPa·s

Q: What about the mass density (960 kPa, x2 = 0.07) of the same compound?
A: 707 ± 2 kg/m3

Q: And the viscosity (2000 kPa, x2 = 0.135)?
A: 0.55 ± 0.06 mPa·s

Q: What about the mass density (2000 kPa, x2 = 0.135) of the same compound?
A: 709 ± 2 kg/m3

Q: What about the viscosity (2970 kPa, x2 = 0.198) of the same compound?
A: 0.51 ± 0.05 mPa·s

Q: And the mass density (2970 kPa, x2 = 0.198)?
A: 710 ± 2 kg/m3

Q: What about the viscosity (4000 kPa, x2 = 0.261) of the same compound?
A: 0.47 ± 0.05 mPa·s

Q: What about the mass density (4000 kPa, x2 = 0.261) of the same compound?
A: 711 ± 2 kg/m3

Q: What about the viscosity (4920 kPa, x2 = 0.307) of the same compound?
A: 0.44 ± 0.04 mPa·s

Q: What about the mass density (4920 kPa, x2 = 0.307) of the same compound?
A: 713 ± 2 kg/m3

Q: And the viscosity (5970 kPa, x2 = 0.358)?
A: 0.41 ± 0.04 mPa·s

Q: And the mass density (5970 kPa, x2 = 0.358)?
A: 714 ± 2 kg/m3
